For series [1], the system named is weeds. Briefly: Pre-emergence test (Example A), weeds. The format is in vivo. The settings on record: soil sprayed 24 hours after sowing, rated after three weeks. An excerpt:
(§1) Solvent: 5 parts by weight of acetone
(§2) Emulsifier: 1 part by weight of alkylaryl polyglycol ether
Seeds of the test plants are sown in normal soil.
(§3) After three weeks, the degree of damage to the plants is rated in % damage in comparison to the development of the untreated control.

For series [2], the system named is weeds. Put plainly: Post-emergence test (Example B), weeds. The format is in vivo. The settings on record: test plants of 5-15 cm sprayed, rated after three weeks.
Description: as §1, §2, §3

The nature of series [3]: LogP determination by HPLC (EEC directive 79/831 Annex V.A8, reversed-phase C18). The settings on record: reversed-phase C18 HPLC column, mobile phase range not labelled. The format is physicochemical. The procedure:
The LogP values given in Table 1 were determined in accordance with EEC directive 79/831 Annex V.A8 by HPLC (High Performance Liquid Chromatography) using a reversed-phase column (C 18). Temperature: 43° C.
(a) Mobile phases for the determination in the acidic range: 0.1% aqueous phosphoric acid, acetonitrile; linear gradient from 10% acetonitrile to 90% acetonitrile—the corresponding data in Table 1 are labelled^a).
(b) Mobile phases for the determination in the neutral range, 0.01 molar aqueous phosphate buffer solution, acetonitrile; linear gradient from 10% acetonitrile to 90% acetonitrile—the corresponding data in Table 1 are labelled b
Calibration was carried out using unbranched alkan-2-ones (with from 3 to 16 carbon atoms) whose logP values are known (determination of the logP values by the retention times using linear interpolation between two successive alkanones).

Turning to `CC1C=Cc2c(c(C#N)cc(F)c2-n2c(=O)cc(C(F)(F)F)n(N)c2=O)O1` (stereo not shown) [Example 1], the “activity against weeds (degree of damage)” value in the series with weeds [1] is “very strong activity”.

`CC1C=Cc2c(c(C#N)cc(F)c2-n2nc(C(F)(F)F)n(C)c2=S)O1` (stereo not shown) [Example 2] came in with a melting point of 144 °C. Also, the “activity against weeds (degree of damage)” value in the series on weeds [2] was “very strong activity”. The chromatographic logP in series [3] came out at 3.37.

Regarding `C#CC(C)Oc1cc(N2C(=O)c3ccccc3C2=O)c(F)cc1C#N` (stereo not shown) [Example (II-2), N-[2-fluoro-4-cyano-5-(but-1-in-3-yl)-oxyphenyl]-phthalimide], the melting point was determined as 170 °C. The same molecule gave a chromatographic logP in series [3] of 2.92.

`N#Cc1cc(F)c(N2C(=O)c3ccccc3C2=O)cc1O` [N-(2-fluoro-4-cyano-5-hydroxy-phenyl)-phthalimide] gave a melting point of 247 °C. For the same molecule, the chromatographic logP in series [3] was 2.04.

Take `COc1cc(N2C(=O)c3ccccc3C2=O)c(F)cc1C#N` [N-(2-fluoro-4-cyano-5-methoxy-phenyl)-phthalimide]: the melting point amounted to 245 °C. In addition, the chromatographic logP in series [3] was found to be 2.51.

The record behind these values is US6573219B1, “Substituted heterocyclyl-2H-chromenes” (Bayer Aktiengesellschaft, priority 1999, dated 2003).
